Measurements as given in ChEMBL document CHEMBL3351303, “Discovery of Imigliptin, a Novel Selective DPP-4 Inhibitor for the Treatment of Type 2 Diabetes” (ACS Med Chem Lett, 2014).
≈ marks a conversion by molar mass, not a printed value.

Legend:
Dipeptidyl peptidase 8 = Dipeptidyl peptidase 8 (Homo sapiens, UniProt Q6V1X1); assay: Inhibition of human recombinant DPP8 pre-incubated with compound for 15 mins before substrate addition by luminescence assay
Dipeptidyl peptidase 9 = Dipeptidyl peptidase 9 (Homo sapiens, UniProt Q86TI2); assay: Inhibition of human recombinant DPP9 pre-incubated with compound for 15 mins before substrate addition by luminescence assay
[1] = Volume of distribution at steady state in rat at 4 mg/kg, iv; type: ADME, organism-based; design: dose 4 mg/kg, route intravenous; settings: in vivo, read-out: Vdss
[2] = Clearance in rat at 4 mg/kg, iv; type: ADME, organism-based; design: dose 4 mg/kg, route intravenous; settings: in vivo
[3] = Half life in rat at 4 mg/kg, iv; type: ADME, organism-based; design: dose 4 mg/kg, route intravenous; settings: in vivo
[4] = Cmax in rat at 8 mg/kg, po; type: ADME, organism-based; design: dose 8 mg/kg, route oral; settings: in vivo
[5] = AUClast in rat at 8 mg/kg, po; type: ADME, organism-based; design: time 0 - last, dose 8 mg/kg, route oral; settings: plasma
[6] = Half life in rat at 8 mg/kg, po; type: ADME, organism-based; design: dose 8 mg/kg, route oral; settings: in vivo
[7] = Oral bioavailability in rat at 8 mg/kg; type: ADME, organism-based; settings: in vivo
[8] = Half life in rat at 10 mg/kg, iv; type: ADME, organism-based; design: dose 10 mg/kg, route intravenous; settings: in vivo
[9] = Cmax in rat at 10 mg/kg, po; type: ADME, organism-based; design: dose 10 mg/kg, route oral; settings: in vivo
[10] = AUClast in rat at 10 mg/kg, po; type: ADME, organism-based; design: time 0 - last, dose 10 mg/kg, route oral; settings: plasma
[11] = Half life in rat at 10 mg/kg, po; type: ADME, organism-based; design: dose 10 mg/kg, route oral; settings: in vivo
[12] = Oral bioavailability in rat at 10 mg/kg; type: ADME, organism-based; settings: in vivo
[13] = Clearance in dog at 6.25 mg/kg, iv; type: ADME, organism-based, Canis lupus familiaris; design: dose 6.25 mg/kg, route intravenous; settings: in vivo
[14] = Volume of distribution at steady state in dog at 6.25 mg/kg, iv; type: ADME, organism-based, Canis lupus familiaris; design: dose 6.25 mg/kg, route intravenous; settings: in vivo, read-out: Vdss
[15] = Half life in dog at 6.25 mg/kg, iv; type: ADME, organism-based, Canis lupus familiaris; design: dose 6.25 mg/kg, route intravenous; settings: in vivo
[16] = Cmax in dog at 5 mg/kg, po; type: ADME, organism-based, Canis lupus familiaris; design: dose 5 mg/kg, route oral; settings: in vivo
[17] = AUClast in dog at 5 mg/kg, po; type: ADME, organism-based, Canis lupus familiaris; design: time 0 - last, dose 5 mg/kg, route oral; settings: plasma
[18] = Half life in dog at 5 mg/kg, po; type: ADME, organism-based, Canis lupus familiaris; design: dose 5 mg/kg, route oral; settings: in vivo
Mus musculus [19] = assay: Inhibition of DPP4 activity in C57BL/6 mouse at 1 mg/kg, po administered as single dose 30 mins before orally glucose challenge and measured 20 mins post oral glucose challenge by luminescence assay; type: functional
[20] = Oral bioavailability in dog at 5 mg/kg; type: ADME, organism-based, Canis lupus familiaris; settings: in vivo
[21] = Clearance in monkey at 5 mg/kg, iv; type: ADME, organism-based, Macaca mulatta; design: dose 5 mg/kg, route intravenous; settings: rhesus monkey, in vivo
[22] = Volume of distribution at steady state in monkey at 5 mg/kg, iv; type: ADME, organism-based, Macaca mulatta; design: dose 5 mg/kg, route intravenous; settings: rhesus monkey, in vivo, read-out: Vdss
[23] = Half life in monkey at 5 mg/kg, iv; type: ADME, organism-based, Macaca mulatta; design: dose 5 mg/kg, route intravenous; settings: rhesus monkey, in vivo
[24] = Cmax in monkey at 10 mg/kg, po; type: ADME, organism-based, Macaca mulatta; design: dose 10 mg/kg, route oral; settings: rhesus monkey, in vivo
[25] = AUClast in monkey at 10 mg/kg, po; type: ADME, organism-based, Macaca mulatta; design: dose 10 mg/kg, route oral, time 0 - last; settings: rhesus monkey, plasma
[26] = Half life in monkey at 10 mg/kg, po; type: ADME, organism-based, Macaca mulatta; design: dose 10 mg/kg, route oral; settings: rhesus monkey, in vivo
[27] = Oral bioavailability in monkey at 10 mg/kg; type: ADME, organism-based, Macaca mulatta; settings: rhesus monkey, in vivo
Mus musculus [28] = assay: Antidiabetic activity in C57BL/6 mouse assessed as plasma glucose level at 0.1 mg/kg, po administered as single dose 30 mins before orally glucose challenge by oral glucose tolerance test (reference value: 15.6 mM); type: functional
Mus musculus [29] = assay: Antidiabetic activity in C57BL/6 mouse assessed as plasma glucose level at 0.3 mg/kg, po administered as single dose 30 mins before orally glucose challenge by oral glucose tolerance test (reference value: 15.6 mM); type: functional
Mus musculus [30] = assay: Antidiabetic activity in C57BL/6 mouse assessed as plasma glucose level at 1 mg/kg, po administered as single dose 30 mins before orally glucose challenge by oral glucose tolerance test (reference value: 15.6 mM); type: functional
Mus musculus [31] = assay: Inhibition of DPP4 activity in C57BL/6 mouse at 3 mg/kg, po administered as single dose 30 mins before orally glucose challenge and measured 20 mins post oral glucose challenge by luminescence assay; settings: C57BL/6, po, read-out: INH
Mus musculus [32] = assay: Inhibition of DPP4 activity in C57BL/6 mouse at 0.1 mg/kg, po administered as single dose 30 mins before orally glucose challenge and measured 20 mins post oral glucose challenge by luminescence assay; type: functional
Mus musculus [33] = assay: Inhibition of DPP4 activity in C57BL/6 mouse at 0.3 mg/kg, po administered as single dose 30 mins before orally glucose challenge and measured 20 mins post oral glucose challenge by luminescence assay; type: functional
Mus musculus [34] = assay: Increase in plasma GLP1 level in C57BL/6 mouse at 0.1 mg/kg, po administered as single dose 30 mins before orally glucose challenge and measured 20 mins post oral glucose challenge by ELISA method (reference value: 4 pM); type: functional
Mus musculus [35] = assay: Increase in plasma GLP1 level in C57BL/6 mouse at 0.3 mg/kg, po administered as single dose 30 mins before orally glucose challenge and measured 20 mins post oral glucose challenge by ELISA method (reference value: 4 pM); type: functional
Mus musculus [36] = assay: Increase in plasma GLP1 level in C57BL/6 mouse at 1 mg/kg, po administered as single dose 30 mins before orally glucose challenge and measured 20 mins post oral glucose challenge by ELISA method (reference value: 4 pM); type: functional
[37] = Plasma concentration in C57BL/6 mouse at 3 mg/kg, po administered as single dose 30 mins before orally glucose challenge and measured 20 mins post oral glucose challenge; type: ADME, organism-based; design: dose 3 mg/kg, route oral
[38] = Plasma concentration in C57BL/6 mouse at 0.1 mg/kg, po administered as single dose 30 mins before orally glucose challenge and measured 20 mins post oral glucose challenge; type: ADME, organism-based; design: dose 0.1 mg/kg, route oral
[39] = Plasma concentration in C57BL/6 mouse at 0.3 mg/kg, po administered as single dose 30 mins before orally glucose challenge and measured 20 mins post oral glucose challenge; type: ADME, organism-based; design: dose 0.3 mg/kg, route oral
[40] = Plasma concentration in C57BL/6 mouse at 1 mg/kg, po administered as single dose 30 mins before orally glucose challenge and measured 20 mins post oral glucose challenge; type: ADME, organism-based; design: dose 1 mg/kg, route oral
Mus musculus [41] = assay: Antidiabetic activity in C57BL/6 mouse assessed as reduction in plasma glucose AUC (0 to 120 mins) at 0.1 mg/kg, po administered as single dose 30 mins before orally glucose challenge by oral glucose tolerance test; type: functional; settings: C57BL/6, Plasma
Mus musculus [42] = assay: Antidiabetic activity in C57BL/6 mouse assessed as reduction in plasma glucose AUC (0 to 120 mins) at 0.3 mg/kg, po administered as single dose 30 mins before orally glucose challenge by oral glucose tolerance test; type: functional; settings: C57BL/6, Plasma
Mus musculus [43] = assay: Antidiabetic activity in C57BL/6 mouse assessed as reduction in plasma glucose AUC (0 to 120 mins) at 1 mg/kg, po administered as single dose 30 mins before orally glucose challenge by oral glucose tolerance test; type: functional; settings: C57BL/6, Plasma
Mus musculus [44] = assay: Toxicity in db/db mouse assessed as effect on body weight administered with food formulated compound for 28 days; type: organism-based; settings: in vivo, po, 672 h
[45] = Solubility in pH 1.2 solution; type: physicochemical
[46] = Solubility in pH 4.5 solution; type: physicochemical
[47] = Solubility in pH 6.8 solution; type: physicochemical
[48] = Permeability from apical to basolateral side in human Caco2 cells; type: ADME, cell-based; settings: Caco-2, read-out: permeability
[49] = Permeability from basolateral to apical side in human Caco2 cells; type: ADME, cell-based; settings: Caco-2, read-out: permeability
[50] = Protein binding in rat; type: ADME, organism-based; settings: in vivo, read-out: PB (converted)
[51] = Protein binding in dog; type: ADME, organism-based, Canis lupus familiaris; settings: in vivo, read-out: PB (converted)
[52] = Protein binding in human; type: ADME, organism-based; settings: in vivo, read-out: PB (converted)
Cytochrome P450 3A4 = Cytochrome P450 3A4 (Homo sapiens, UniProt P08684); assay: Inhibition of CYP3A4 (unknown origin); type: ADME
Cytochrome P450 2D6 = Cytochrome P450 2D6 (Homo sapiens, UniProt P10635); assay: Inhibition of CYP2D6 (unknown origin); type: ADME
Cytochrome P450 2C9 = Cytochrome P450 2C9 (Homo sapiens, UniProt P11712); assay: Inhibition of CYP2C9 (unknown origin); type: ADME
Cytochrome P450 2C19 = Cytochrome P450 2C19 (Homo sapiens, UniProt P33261); assay: Inhibition of CYP2C19 (unknown origin); type: ADME
[53] = target: Voltage-gated inwardly rectifying potassium channel KCNH2 (Homo sapiens, UniProt Q12809); assay: Inhibition of human ERG
Canis familiaris = assay: Cardiotoxicity in conscious dog assessed as induction of QT prolongation up to 20 mg/kg; type: toxicity, organism-based, Canis lupus familiaris; design: dose 20 mg/kg; settings: in vivo
Salmonella typhimurium = assay: Genotoxicity in Salmonella typhimurium at 5000 ug/plate by Ames test; type: toxicity, organism-based; settings: salmonella enterica subsp. enterica serovar typhimurium
[54] = Toxicity in rat after 28 days; type: organism-based; settings: in vivo
Mus musculus [55] = species on record: Mus musculus; assay: animal or person; settings: C57BL/6, Plasma, po, read-out: INH
Mus musculus [56] = species on record: Mus musculus; assay: animal or person; settings: C57BL/6, Plasma, po, read-out: MED

Sequence of Cytochrome P450 2C9 (P11712 whole entry): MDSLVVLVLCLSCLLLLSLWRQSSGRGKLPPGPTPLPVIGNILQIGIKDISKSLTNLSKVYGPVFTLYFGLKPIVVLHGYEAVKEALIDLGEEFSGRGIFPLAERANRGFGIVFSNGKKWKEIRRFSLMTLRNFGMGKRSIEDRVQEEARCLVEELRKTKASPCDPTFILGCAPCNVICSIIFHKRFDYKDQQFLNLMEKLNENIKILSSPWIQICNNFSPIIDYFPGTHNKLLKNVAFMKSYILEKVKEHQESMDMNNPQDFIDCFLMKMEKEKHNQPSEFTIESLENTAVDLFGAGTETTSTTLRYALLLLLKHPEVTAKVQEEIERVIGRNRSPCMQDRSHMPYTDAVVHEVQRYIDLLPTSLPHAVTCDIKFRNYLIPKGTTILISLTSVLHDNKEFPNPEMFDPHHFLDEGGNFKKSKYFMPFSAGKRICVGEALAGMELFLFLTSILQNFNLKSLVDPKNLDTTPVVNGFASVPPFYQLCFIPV
Sequence of Cytochrome P450 3A4 (P08684 whole entry): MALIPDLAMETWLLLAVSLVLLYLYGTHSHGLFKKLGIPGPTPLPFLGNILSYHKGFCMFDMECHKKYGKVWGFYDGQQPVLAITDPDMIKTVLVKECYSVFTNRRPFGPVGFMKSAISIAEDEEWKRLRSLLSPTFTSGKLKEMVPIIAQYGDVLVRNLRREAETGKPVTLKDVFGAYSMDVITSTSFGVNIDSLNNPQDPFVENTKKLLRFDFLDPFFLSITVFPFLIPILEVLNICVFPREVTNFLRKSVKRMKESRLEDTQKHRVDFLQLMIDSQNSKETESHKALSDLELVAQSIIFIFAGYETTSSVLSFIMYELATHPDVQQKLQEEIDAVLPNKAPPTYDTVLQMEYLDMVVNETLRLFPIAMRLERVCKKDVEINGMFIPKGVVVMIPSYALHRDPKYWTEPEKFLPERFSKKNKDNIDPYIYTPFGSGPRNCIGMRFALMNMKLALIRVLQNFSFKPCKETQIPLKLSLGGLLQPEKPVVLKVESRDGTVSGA
Sequence of Dipeptidyl peptidase 8 (Q6V1X1 whole entry): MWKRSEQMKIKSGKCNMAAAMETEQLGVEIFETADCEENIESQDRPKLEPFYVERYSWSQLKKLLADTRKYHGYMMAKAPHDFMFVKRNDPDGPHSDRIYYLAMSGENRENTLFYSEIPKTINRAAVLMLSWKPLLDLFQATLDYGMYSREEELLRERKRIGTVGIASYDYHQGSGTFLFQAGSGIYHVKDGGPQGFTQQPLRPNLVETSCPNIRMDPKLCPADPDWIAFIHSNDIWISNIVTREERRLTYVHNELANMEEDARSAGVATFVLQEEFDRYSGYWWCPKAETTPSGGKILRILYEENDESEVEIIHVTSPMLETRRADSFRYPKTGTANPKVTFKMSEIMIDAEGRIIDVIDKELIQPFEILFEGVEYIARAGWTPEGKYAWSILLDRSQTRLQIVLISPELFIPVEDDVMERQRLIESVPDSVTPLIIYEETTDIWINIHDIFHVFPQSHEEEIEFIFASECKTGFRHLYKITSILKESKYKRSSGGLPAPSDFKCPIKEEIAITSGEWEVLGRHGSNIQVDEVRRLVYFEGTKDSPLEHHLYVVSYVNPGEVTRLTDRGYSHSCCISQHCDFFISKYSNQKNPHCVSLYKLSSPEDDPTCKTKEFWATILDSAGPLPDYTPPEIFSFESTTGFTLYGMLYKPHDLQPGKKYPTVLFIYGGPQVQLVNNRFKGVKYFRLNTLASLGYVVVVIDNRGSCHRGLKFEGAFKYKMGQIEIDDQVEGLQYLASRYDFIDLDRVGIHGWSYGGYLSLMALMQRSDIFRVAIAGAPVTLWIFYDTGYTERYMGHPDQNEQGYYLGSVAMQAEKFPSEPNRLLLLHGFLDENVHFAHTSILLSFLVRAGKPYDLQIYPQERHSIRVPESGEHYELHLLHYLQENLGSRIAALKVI
Sequence of Dipeptidyl peptidase 9 (Q86TI2 whole entry): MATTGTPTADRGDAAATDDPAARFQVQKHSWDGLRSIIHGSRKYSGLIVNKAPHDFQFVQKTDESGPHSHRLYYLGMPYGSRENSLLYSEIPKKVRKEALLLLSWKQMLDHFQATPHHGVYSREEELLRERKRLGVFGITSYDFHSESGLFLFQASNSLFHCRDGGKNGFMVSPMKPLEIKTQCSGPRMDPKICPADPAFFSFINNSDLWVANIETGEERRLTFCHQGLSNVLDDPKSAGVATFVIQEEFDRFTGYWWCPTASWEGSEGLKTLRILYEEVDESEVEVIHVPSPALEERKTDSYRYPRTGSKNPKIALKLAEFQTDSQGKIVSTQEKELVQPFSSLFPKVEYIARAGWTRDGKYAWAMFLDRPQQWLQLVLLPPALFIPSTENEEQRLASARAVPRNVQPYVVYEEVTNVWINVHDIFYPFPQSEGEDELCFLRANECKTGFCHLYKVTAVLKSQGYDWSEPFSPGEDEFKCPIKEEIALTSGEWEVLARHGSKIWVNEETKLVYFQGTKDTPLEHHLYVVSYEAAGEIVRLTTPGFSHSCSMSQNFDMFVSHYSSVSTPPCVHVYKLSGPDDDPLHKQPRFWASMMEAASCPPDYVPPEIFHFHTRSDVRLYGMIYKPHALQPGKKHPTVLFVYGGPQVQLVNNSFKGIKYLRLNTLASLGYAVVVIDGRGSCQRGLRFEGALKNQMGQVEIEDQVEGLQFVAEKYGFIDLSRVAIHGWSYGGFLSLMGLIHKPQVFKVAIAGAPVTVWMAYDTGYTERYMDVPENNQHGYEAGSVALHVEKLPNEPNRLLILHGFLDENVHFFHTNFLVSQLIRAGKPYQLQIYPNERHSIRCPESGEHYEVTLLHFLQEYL
Sequence of Voltage-gated inwardly rectifying potassium channel KCNH2 (Q12809 whole entry): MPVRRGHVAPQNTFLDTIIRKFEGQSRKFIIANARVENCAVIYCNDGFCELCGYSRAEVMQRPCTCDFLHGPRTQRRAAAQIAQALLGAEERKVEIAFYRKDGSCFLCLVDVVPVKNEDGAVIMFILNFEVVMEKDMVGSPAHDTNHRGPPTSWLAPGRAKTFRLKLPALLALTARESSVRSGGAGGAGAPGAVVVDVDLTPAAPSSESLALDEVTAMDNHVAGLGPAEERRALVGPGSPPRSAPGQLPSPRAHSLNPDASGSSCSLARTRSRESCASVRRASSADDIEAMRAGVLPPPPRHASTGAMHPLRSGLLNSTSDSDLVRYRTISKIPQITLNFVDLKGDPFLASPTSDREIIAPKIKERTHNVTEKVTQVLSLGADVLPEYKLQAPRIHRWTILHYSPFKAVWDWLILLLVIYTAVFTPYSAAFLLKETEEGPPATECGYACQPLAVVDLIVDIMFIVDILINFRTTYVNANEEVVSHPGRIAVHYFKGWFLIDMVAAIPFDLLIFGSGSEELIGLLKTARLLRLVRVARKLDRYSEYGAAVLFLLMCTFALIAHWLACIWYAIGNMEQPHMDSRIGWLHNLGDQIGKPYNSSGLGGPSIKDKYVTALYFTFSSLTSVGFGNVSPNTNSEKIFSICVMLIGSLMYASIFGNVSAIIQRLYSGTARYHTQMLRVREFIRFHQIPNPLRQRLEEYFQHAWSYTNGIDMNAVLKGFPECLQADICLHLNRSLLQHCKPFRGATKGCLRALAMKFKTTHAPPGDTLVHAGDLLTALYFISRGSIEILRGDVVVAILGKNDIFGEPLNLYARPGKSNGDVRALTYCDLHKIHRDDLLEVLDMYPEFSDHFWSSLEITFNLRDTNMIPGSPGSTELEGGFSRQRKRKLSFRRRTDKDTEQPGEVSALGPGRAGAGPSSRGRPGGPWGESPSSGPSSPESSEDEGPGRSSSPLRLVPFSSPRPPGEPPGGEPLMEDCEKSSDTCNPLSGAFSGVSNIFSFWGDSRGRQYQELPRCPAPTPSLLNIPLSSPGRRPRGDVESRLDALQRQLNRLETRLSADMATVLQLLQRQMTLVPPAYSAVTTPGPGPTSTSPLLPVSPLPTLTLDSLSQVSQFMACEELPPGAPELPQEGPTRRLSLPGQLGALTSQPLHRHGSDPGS
Sequence of Cytochrome P450 2C19 (P33261 whole entry): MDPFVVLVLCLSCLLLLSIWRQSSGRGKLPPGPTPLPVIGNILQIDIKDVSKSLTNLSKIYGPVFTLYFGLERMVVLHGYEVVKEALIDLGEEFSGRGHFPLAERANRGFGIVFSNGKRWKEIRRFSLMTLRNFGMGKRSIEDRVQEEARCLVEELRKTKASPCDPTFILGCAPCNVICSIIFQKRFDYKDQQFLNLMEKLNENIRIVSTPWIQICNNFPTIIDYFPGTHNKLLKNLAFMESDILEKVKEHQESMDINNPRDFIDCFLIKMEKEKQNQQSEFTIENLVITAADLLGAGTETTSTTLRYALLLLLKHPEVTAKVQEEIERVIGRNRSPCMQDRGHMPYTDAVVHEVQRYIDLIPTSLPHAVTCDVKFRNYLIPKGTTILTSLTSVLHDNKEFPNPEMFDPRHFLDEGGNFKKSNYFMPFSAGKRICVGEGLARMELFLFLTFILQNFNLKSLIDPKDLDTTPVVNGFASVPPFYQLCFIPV
Sequence of Cytochrome P450 2D6 (P10635 whole entry): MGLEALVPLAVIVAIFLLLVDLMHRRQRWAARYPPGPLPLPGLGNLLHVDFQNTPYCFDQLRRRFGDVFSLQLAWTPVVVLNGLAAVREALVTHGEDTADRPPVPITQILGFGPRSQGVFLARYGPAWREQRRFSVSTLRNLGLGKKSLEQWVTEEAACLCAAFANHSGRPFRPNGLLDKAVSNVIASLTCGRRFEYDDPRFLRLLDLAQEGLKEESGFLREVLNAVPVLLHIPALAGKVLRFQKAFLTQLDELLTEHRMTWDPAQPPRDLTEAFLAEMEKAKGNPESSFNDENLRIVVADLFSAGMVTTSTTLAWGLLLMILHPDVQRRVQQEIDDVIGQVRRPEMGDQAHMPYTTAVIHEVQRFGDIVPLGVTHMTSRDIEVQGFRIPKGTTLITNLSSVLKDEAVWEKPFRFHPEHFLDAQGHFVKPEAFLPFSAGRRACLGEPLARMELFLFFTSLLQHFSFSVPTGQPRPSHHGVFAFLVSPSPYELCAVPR

Cn1c(=O)n(Cc2ccccc2C#N)c2c(N3CCC[C@@H](N)C3)ncnc21
IC50 (Dipeptidyl peptidase 8): > 100 µM
IC50 (Dipeptidyl peptidase 9): > 100 µM
Vd [1]: 2.78 L/kg
clearance [2]: 61.2 mL/min/kg
half-life [3]: 0.8 h
Cmax [4]: 86 ng/mL
AUC(0-t) [5]: 249 ng·h/mL
half-life [6]: 1.5 h
bioavailability [7]: 12%

Cc1cc(N2CCC[C@@H](N)C2)c2c(n1)n(C)c(=O)n2Cc1ccccc1C#N
half-life [8]: 1.83 h
Cmax [9]: 1250 ng/mL
AUC(0-t) [10]: 3980 ng·h/mL
half-life [11]: 2.4 h
bioavailability [12]: 97%
clearance [13]: 35.3 mL/min/kg
Vd [14]: 2.46 L/kg
half-life [15]: 1.12 h
Cmax [16]: 1360 ng/mL
AUC(0-t) [17]: 3630 ng·h/mL
half-life [18]: 1.3 h
inhibition in vivo at 1 mg/kg (Mus musculus [19]): 71.2%
bioavailability [20]: 89%
clearance [21]: 11.2 mL/min/kg
Vd [22]: 2.44 L/kg
half-life [23]: 3.68 h
Cmax [24]: 3030 ng/mL
AUC(0-t) [25]: 12900 ng·h/mL
half-life [26]: 4.8 h
bioavailability [27]: 86%
Activity (Mus musculus [28]): 14.1 mM
Activity (Mus musculus [29]): 12.4 mM
Activity (Mus musculus [30]): 11.4 mM
inhibition in vivo at 3 mg/kg (Mus musculus [31]): 82.1%
inhibition in vivo at 0.1 mg/kg (Mus musculus [32]): 23.8%
inhibition in vivo at 0.3 mg/kg (Mus musculus [33]): 43.8%
Activity (Mus musculus [34]): 5.7 pM
Activity (Mus musculus [35]): 5.7 pM
Activity (Mus musculus [36]): 6.9 pM
concentration at 20 min [37]: 129 ng/mL
concentration at 20 min [38]: 3.9 ng/mL
concentration at 20 min [39]: 10.3 ng/mL
concentration at 50 min [40]: 36.1 ng/mL
inhibition in vivo at 0.1 mg/kg (Mus musculus [41]): 3%
inhibition in vivo at 0.3 mg/kg (Mus musculus [42]): 40%
inhibition in vivo at 1 mg/kg (Mus musculus [43]): 57%
Activity (Mus musculus [44]): Non-toxic
solubility [45]: 560 mg/mL (≈ 1490 mM)
solubility [46]: 560 mg/mL (≈ 1490 mM)
solubility [47]: 551 mg/mL (≈ 1460 mM)
Papp A→B [48]: 9 ×10⁻⁶ cm/s
Papp B→A [49]: 28 ×10⁻⁶ cm/s
fraction unbound [50]: 0.58
fraction unbound [51]: 0.26
fraction unbound [52]: 0.38
INH (Cytochrome P450 3A4): > 30 µM
INH (Cytochrome P450 2D6): > 30 µM
INH (Cytochrome P450 2C9): > 30 µM
INH (Cytochrome P450 2C19): > 30 µM
INH [53]: > 25 µM
Activity (Canis familiaris): Non-toxic
Activity (Salmonella typhimurium): Non-toxic
NOAEL at 672 h [54]: 150 mg/kg
inhibition in vivo at 3 mg/kg (Mus musculus [55]): 65%
minimal effective dose (Mus musculus [56]): 0.3 mg/kg
